Test results reported in US20030224942A1, “Alkylamino-1,3,5-triazines, processes for their preparation and their use as herbicides and plant growth regulators” (priority 2001, published 2003).

Columns and labels:
[1] = test system: Chenopodium spp., Papaver spp., Polygonum spp., Veronica spp. or Viola spp.; test: Post-emergence effect on weeds (greenhouse pot test, visual scoring); type: in vivo, monocotyledonous and dicotyledonous weeds; settings: treated at three-leaf stage; visual scoring after about 3 to 4 weeks; application rate of 0.5 kg and less of active substance per hectare
[2] = test system: Cyperus spp., Echinochloa spp., Digitaria spp., Sagitaria spp. and Scirpus spp.; test: Action on harmful plants in rice (paddy rice conditions, visual scoring); type: in vivo, typical rice weeds (gramineous and broad-leaved); settings: applied into the dammed water, visual scoring about three weeks after application
How it was run: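 Under paddy conditions with 2-3 cm dammed water, transplanted and sown rice plus weeds were treated at three-leaf stage (E. crus-galli at 1.5 leaves). Pots stayed in greenhouse under optimum growth conditions for the test period, with visual assessment of damage.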

CCC(F)c1nc(N)nc(NCc2ccc(F)c(C3CC3)c2)n1 (stereo not drawn) [Product P26.916]
herbicidal activity post-emergence against harmful plants [1]: very good herbicidal activity | herbicidal activity against harmful plants which are typical for rice crops [2]: very good herbicidal activity

CCC(F)c1nc(N)nc(NCc2cc(F)c(C3CC3)c(F)c2)n1 (stereo not drawn) [Product P26.960]
herbicidal activity post-emergence against harmful plants [1]: very good herbicidal activity | herbicidal activity against harmful plants which are typical for rice crops [2]: very good herbicidal activity

CCC(F)c1nc(N)nc(NCc2cccc(C(F)=C(F)F)c2)n1 (stereo not drawn) [Product P26.1567]
herbicidal activity post-emergence against harmful plants [1]: very good herbicidal activity | herbicidal activity against harmful plants which are typical for rice crops [2]: very good herbicidal activity

CCC(F)c1nc(N)nc(NCc2ccc(C(F)=C(F)F)cc2)n1 (stereo not drawn) [Product P26.1568]
herbicidal activity post-emergence against harmful plants [1]: very good herbicidal activity | herbicidal activity against harmful plants which are typical for rice crops [2]: very good herbicidal activity

C#Cc1cccc(CNc2nc(N)nc(C(F)CC)n2)c1 (stereo not drawn) [Product P26.1579]
herbicidal activity post-emergence against harmful plants [1]: very good herbicidal activity | herbicidal activity against harmful plants which are typical for rice crops [2]: very good herbicidal activity

C#Cc1ccc(CNc2nc(N)nc(C(F)CC)n2)cc1 (stereo not drawn) [Product P26.1580]
herbicidal activity post-emergence against harmful plants [1]: very good herbicidal activity | herbicidal activity against harmful plants which are typical for rice crops [2]: very good herbicidal activity

CC#Cc1cccc(CNc2nc(N)nc(C(F)CC)n2)c1 (stereo not drawn) [Product P26.1582]
herbicidal activity post-emergence against harmful plants [1]: very good herbicidal activity | herbicidal activity against harmful plants which are typical for rice crops [2]: very good herbicidal activity

CC#Cc1ccc(CNc2nc(N)nc(C(F)CC)n2)cc1 (stereo not drawn) [Product P26.1583]
herbicidal activity post-emergence against harmful plants [1]: very good herbicidal activity | herbicidal activity against harmful plants which are typical for rice crops [2]: very good herbicidal activity

CCC(F)c1nc(N)nc(NCc2cccc(C3CC3)c2)n1 (stereo not drawn) [Product P26.1603]
herbicidal activity post-emergence against harmful plants [1]: very good herbicidal activity | herbicidal activity against harmful plants which are typical for rice crops [2]: very good herbicidal activity

CCC(F)c1nc(N)nc(NCc2ccc(C3CC3)cc2)n1 (stereo not drawn) [Product P26.1604]
herbicidal activity post-emergence against harmful plants [1]: very good herbicidal activity | herbicidal activity against harmful plants which are typical for rice crops [2]: very good herbicidal activity

CCC(F)c1nc(N)nc(NC(C)c2ccc(F)c(C(F)=C(F)F)c2)n1 (stereo not drawn) [Product P27.5]
herbicidal activity post-emergence against harmful plants [1]: very good herbicidal activity | herbicidal activity against harmful plants which are typical for rice crops [2]: very good herbicidal activity

CCC(F)c1nc(N)nc(NC(C)c2cc(F)c(C(F)=C(F)F)c(F)c2)n1 (stereo not drawn) [Product P27.49]
herbicidal activity post-emergence against harmful plants [1]: very good herbicidal activity | herbicidal activity against harmful plants which are typical for rice crops [2]: very good herbicidal activity

C#Cc1cc(C(C)Nc2nc(N)nc(C(F)CC)n2)ccc1F (stereo not drawn) [Product P27.309]
herbicidal activity post-emergence against harmful plants [1]: very good herbicidal activity | herbicidal activity against harmful plants which are typical for rice crops [2]: very good herbicidal activity

C#Cc1ccc(C(C)Nc2nc(N)nc(C(F)CC)n2)cc1C (stereo not drawn) [Product P27.335]
herbicidal activity post-emergence against harmful plants [1]: very good herbicidal activity | herbicidal activity against harmful plants which are typical for rice crops [2]: very good herbicidal activity

C#Cc1c(F)cc(C(C)Nc2nc(N)nc(C(F)CC)n2)cc1F (stereo not drawn) [Product P27.352]
herbicidal activity post-emergence against harmful plants [1]: very good herbicidal activity | herbicidal activity against harmful plants which are typical for rice crops [2]: very good herbicidal activity

CC#Cc1cc(C(C)Nc2nc(N)nc(C(F)CC)n2)ccc1F (stereo not drawn) [Product P27.384]
herbicidal activity post-emergence against harmful plants [1]: very good herbicidal activity | herbicidal activity against harmful plants which are typical for rice crops [2]: very good herbicidal activity

CC#Cc1c(F)cc(C(C)Nc2nc(N)nc(C(F)CC)n2)cc1F (stereo not drawn) [Product P27.428]
herbicidal activity post-emergence against harmful plants [1]: very good herbicidal activity | herbicidal activity against harmful plants which are typical for rice crops [2]: very good herbicidal activity

CCC(F)c1nc(N)nc(NC(C)c2ccc(F)c(C#CC(C)O)c2)n1 (stereo not drawn) [Product P27.840]
herbicidal activity post-emergence against harmful plants [1]: very good herbicidal activity | herbicidal activity against harmful plants which are typical for rice crops [2]: very good herbicidal activity

CCC(F)c1nc(N)nc(NC(C)c2ccc(F)c(C3CC3)c2)n1 (stereo not drawn) [Product P27.916]
herbicidal activity post-emergence against harmful plants [1]: very good herbicidal activity | herbicidal activity against harmful plants which are typical for rice crops [2]: very good herbicidal activity

CCC(F)c1nc(N)nc(NC(C)c2cc(F)c(C3CC3)c(F)c2)n1 (stereo not drawn) [Product P27.960]
herbicidal activity post-emergence against harmful plants [1]: very good herbicidal activity | herbicidal activity against harmful plants which are typical for rice crops [2]: very good herbicidal activity

CCC(F)c1nc(N)nc(NC(C)c2cccc(C(F)=C(F)F)c2)n1 (stereo not drawn) [Product P27.1567]
herbicidal activity post-emergence against harmful plants [1]: very good herbicidal activity | herbicidal activity against harmful plants which are typical for rice crops [2]: very good herbicidal activity

CCC(F)c1nc(N)nc(NC(C)c2ccc(C(F)=C(F)F)cc2)n1 (stereo not drawn) [Product P27.1568]
herbicidal activity post-emergence against harmful plants [1]: very good herbicidal activity | herbicidal activity against harmful plants which are typical for rice crops [2]: very good herbicidal activity

C#Cc1cccc(C(C)Nc2nc(N)nc(C(F)CC)n2)c1 (stereo not drawn) [Product P27.1579]
herbicidal activity post-emergence against harmful plants [1]: very good herbicidal activity | herbicidal activity against harmful plants which are typical for rice crops [2]: very good herbicidal activity

C#Cc1ccc(C(C)Nc2nc(N)nc(C(F)CC)n2)cc1 (stereo not drawn) [Product P27.1580]
herbicidal activity post-emergence against harmful plants [1]: very good herbicidal activity | herbicidal activity against harmful plants which are typical for rice crops [2]: very good herbicidal activity

CC#Cc1cccc(C(C)Nc2nc(N)nc(C(F)CC)n2)c1 (stereo not drawn) [Product P27.1582]
herbicidal activity post-emergence against harmful plants [1]: very good herbicidal activity | herbicidal activity against harmful plants which are typical for rice crops [2]: very good herbicidal activity

CC#Cc1ccc(C(C)Nc2nc(N)nc(C(F)CC)n2)cc1 (stereo not drawn) [Product P27.1583]
herbicidal activity post-emergence against harmful plants [1]: very good herbicidal activity | herbicidal activity against harmful plants which are typical for rice crops [2]: very good herbicidal activity

CCC(F)c1nc(N)nc(NC(C)c2cccc(C#CC(C)O)c2)n1 (stereo not drawn) [Product P27.1600]
herbicidal activity post-emergence against harmful plants [1]: very good herbicidal activity | herbicidal activity against harmful plants which are typical for rice crops [2]: very good herbicidal activity

CCC(F)c1nc(N)nc(NC(C)c2ccc(C#CC(C)O)cc2)n1 (stereo not drawn) [Product P27.1601]
herbicidal activity post-emergence against harmful plants [1]: very good herbicidal activity | herbicidal activity against harmful plants which are typical for rice crops [2]: very good herbicidal activity

CCC(F)c1nc(N)nc(NC(C)c2cccc(C3CC3)c2)n1 (stereo not drawn) [Product P27.1603]
herbicidal activity post-emergence against harmful plants [1]: very good herbicidal activity | herbicidal activity against harmful plants which are typical for rice crops [2]: very good herbicidal activity

CCC(F)c1nc(N)nc(NC(C)c2ccc(C3CC3)cc2)n1 (stereo not drawn) [Product P27.1604]
herbicidal activity post-emergence against harmful plants [1]: very good herbicidal activity | herbicidal activity against harmful plants which are typical for rice crops [2]: very good herbicidal activity

C#Cc1cc(C(Nc2nc(N)nc(C(F)CC)n2)C2CC2)ccc1F (stereo not drawn) [Product P29.309]
herbicidal activity post-emergence against harmful plants [1]: very good herbicidal activity | herbicidal activity against harmful plants which are typical for rice crops [2]: very good herbicidal activity

C#Cc1c(F)cc(C(Nc2nc(N)nc(C(F)CC)n2)C2CC2)cc1F (stereo not drawn) [Product P29.352]
herbicidal activity post-emergence against harmful plants [1]: very good herbicidal activity | herbicidal activity against harmful plants which are typical for rice crops [2]: very good herbicidal activity

CC#Cc1cc(C(Nc2nc(N)nc(C(F)CC)n2)C2CC2)ccc1F (stereo not drawn) [Product P29.384]
herbicidal activity post-emergence against harmful plants [1]: very good herbicidal activity | herbicidal activity against harmful plants which are typical for rice crops [2]: very good herbicidal activity

CC#Cc1c(F)cc(C(Nc2nc(N)nc(C(F)CC)n2)C2CC2)cc1F (stereo not drawn) [Product P29.428]
herbicidal activity post-emergence against harmful plants [1]: very good herbicidal activity | herbicidal activity against harmful plants which are typical for rice crops [2]: very good herbicidal activity

CCC(F)c1nc(N)nc(NC(c2cccc(C(F)=C(F)F)c2)C2CC2)n1 (stereo not drawn) [Product P29.1567]
herbicidal activity post-emergence against harmful plants [1]: very good herbicidal activity | herbicidal activity against harmful plants which are typical for rice crops [2]: very good herbicidal activity

CCC(F)c1nc(N)nc(NC(c2ccc(C(F)=C(F)F)cc2)C2CC2)n1 (stereo not drawn) [Product P29.1568]
herbicidal activity post-emergence against harmful plants [1]: very good herbicidal activity | herbicidal activity against harmful plants which are typical for rice crops [2]: very good herbicidal activity

C#Cc1cccc(C(Nc2nc(N)nc(C(F)CC)n2)C2CC2)c1 (stereo not drawn) [Product P29.1579]
herbicidal activity post-emergence against harmful plants [1]: very good herbicidal activity | herbicidal activity against harmful plants which are typical for rice crops [2]: very good herbicidal activity

C#Cc1ccc(C(Nc2nc(N)nc(C(F)CC)n2)C2CC2)cc1 (stereo not drawn) [Product P29.1580]
herbicidal activity post-emergence against harmful plants [1]: very good herbicidal activity | herbicidal activity against harmful plants which are typical for rice crops [2]: very good herbicidal activity

CC#Cc1cccc(C(Nc2nc(N)nc(C(F)CC)n2)C2CC2)c1 (stereo not drawn) [Product P29.1582]
herbicidal activity post-emergence against harmful plants [1]: very good herbicidal activity | herbicidal activity against harmful plants which are typical for rice crops [2]: very good herbicidal activity
